Measurements: patent US20250034531A1, “METHOD FOR PRODUCING STEM CELLS” (priority 2021, published 2025)

Tests used:
[1] = test system: Human peripheral blood mononuclear cells; conditions: 10 nmol/L in RPMI 1640 medium with IL-2 added daily; KLF4, OCT3/4, SOX2, c-MYC by CytoTune-iPS 2.0; 14th day; FIG. 2
Procedure: Human peripheral blood mononuclear cells were put into the culture medium, and a culture medium containing about 1×10^6 monocytes was put into a 24-well plate (1st day). 1 μL of 20 μg/mL IL-2 was added to the culture medium every day. On the third day, the culture medium containing the cells was recovered from the plates, the culture medium was centrifugally separated, and the supernatant was removed. Then, 2 mL of a new HMBPP-containing medium was added to the cells, and 1 mL was put into each of two wells of a 24-well plate.
On the 6th day, the culture medium containing the cells was recovered from the plates, the culture medium was centrifugally separated, and the supernatant was removed. Then, an HMBPP-containing medium was added to the cells, and a culture medium containing 2×10^4 monocytes was put into a 96-well plate. KLF4, OCT3/4, SOX2, and c-MYC were introduced into the cells by using CytoTune-iPS 2.0 (Thermo Fisher Scientific, Inc.). The multiplicity of infection (MOI) was adjusted to be 20 to 30.
On the 7th day, the culture medium containing the cells recovered from the 96-well plate were added with a fresh HMBPP-containing medium and put into a 6-well plate. On the 8th, 10th, and 12th days, a stem cell culture medium (Stem Fit, Ajinomoto Co., Inc.) was added thereto, and thereafter, the culture medium was replaced using the stem cell culture medium.

Vγ9 gene = conditions: genomic DNA of the iPS cells; γδT cells as positive control; FIG. 4
Procedure: iPS cells were induced in the same manner as in Example 1, except that HMBPP in the HMBPP-containing medium was changed to 5 μL of zoledronic acid (Zol, Sigma-Aldrich Co., LLC).

Q: Which results are given for `C/C(=C\COP(=O)(O)OP(=O)(O)O)CO` [HMBPP, (E)-4-hydroxy-3-methyl-but-2-enyl pyrophosphate]?
A: colonies of iPS cells formed [1]: a plurality of colonies of iPS cells has been formed; rearranged Vγ9 gene having the J1/J2 gene in the established iPS cells (Vγ9 gene): have a Vγ9 gene that has undergone rearrangement
